Columns and labels:
[1] = tested on: T47D (PIK3CA H1047R) cells; test: pS473 AKT assay in T47D cells; assay type: cell-based; conditions: Homo sapiens, pSer473 AKT, 2 h treatment, read-out: T47D_IC50
Procedure: (§1) SKBR3 (PIK3CA WT), MCF7 (PIK3CA E545K), and T47D (PIK3CA H1047R) cells were cultured using 10-cm petri dishes with recommended medium. One day before the assay, cells were seeded in 96-well plates. After overnight incubation, cells were treated with different concentrations of PI3Kα inhibitors for 2 h. Cells were then fixed using 4% paraformaldehyde at room temperature for 20 min. Cells were aspirated with 4% paraformaldehyde, and washed using 1× regular phosphate buffered saline 3 times, 5 min each. Any residual phosphate buffered saline was aspirated and cells were blocked using 10% goat serum containing 1% bovine serum albumin and 0.3% Triton X-100 at room temperature for 1 h. Without any additional washing, primary antibodies (rabbit anti-pSer473 AKT) were diluted using blocking buffer and added at a final volume of 50 microliter per well. Assay plates with primary antibodies were maintained overnight at 4° C. Cells were washed using 1× regular phosphate buffered saline 3 times, 5 min each. After the final wash, cells were incubated with horseradish peroxidase-conjugated secondary antibodies (goat Anti-rabbit IgG) and diluted using the same blocking buffer at room temperature for 1 h. Cells were then washed thoroughly using 1× regular phosphate buffered saline 3 times, 5 min each, and any residual phosphate buffered saline was aspirated. Super-Signal ELISA Pico Chemiluminescent Substrate was then added at a final volume of 100 microliter per well. Plates were read on a i3× Multi-Mode Microplate Reader and IC50 values calculated using GraphPad Prism software.
(§2) Results of the assay described above are presented in Table A. “++++” indicates an IC50 less than 1000 nM; “+++” indicates an IC50 greater than or equal to 1000 nM but less than 5000 nM; “++” indicates an IC50 greater than or equal to 5000 nM but less than 10000 nM; and “+” indicates an IC50 greater than or equal to 10000 nM.

[2] = tested on: SKBR3 (PIK3CA WT) cells; test: pS473 AKT assay in SKBR3 cells; assay type: cell-based; conditions: Homo sapiens, SK-BR-3, pSer473 AKT, 2 h treatment, read-out: SKBR3_IC50
Procedure: as §1, §2

SMILES	IC50 [1] [µM]	IC50 [2] [µM]
Cc1cc(C(C)Nc2ccccc2C(=O)O)c2nc(N3CCC(C)(C)CC3)n3nnnc3c2c1 (stereo not drawn) [Example 8, 2-((1-(5-(4,4-dimethylpiperidin-1-yl)-9-methyltetrazolo[1,5-c]quinazolin-7-yl)ethyl)amino)benzoic acid]	1 to 5	≥ 10
Cc1cc(C(C)Nc2ccccc2C(=O)O)c2nc(N3CCC(C)(C)CC3)n3cnnc3c2c1 (stereo not drawn) [Example 4, 2-((1-(5-(4,4-Dimethylpiperidin-1-yl)-9-methyl-[1,2,4]triazolo[4,3-c]quinazolin-7-yl)ethyl)amino)benzoic acid]	< 1	≥ 10
Cc1cc(C(C)Nc2ccccc2C(=O)O)c2nc(N3Cc4ccccc4C3)n3cnnc3c2c1 (stereo not drawn) [Example 5, 2-((1-(5-(Isoindolin-2-yl)-9-methyl-[1,2,4]triazolo[4,3-c]quinazolin-7-yl)ethyl)amino)benzoic acid]	< 1	≥ 10
Cc1cc(C(C)Nc2ccccc2C(=O)O)c2nc(N3Cc4ccccc4C3)n3ccnc3c2c1 (stereo not drawn) [Example 2, 2-((1-(5-(Isoindolin-2-yl)-9-methylimidazo[1,2-c]quinazolin-7-yl)ethyl)amino)benzoic acid]	< 1	≥ 10
Cc1cc(C(C)Nc2ccc(Cl)nc2-c2cnn(C)c2)c2nc(N3CCN(C)CC3)n3cnnc3c2c1 (stereo not drawn) [Example 15, 6-Chloro-2-(1-methyl-1H-pyrazol-4-yl)-N-(1-(9-methyl-5-(4-methylpiperazin-1-yl)-[1,2,4]triazolo[4,3-c]quinazolin-7-yl)ethyl)pyridin-3-amine]	< 1	–
Cc1cc(C(C)Nc2ccc(Cl)nc2-c2ccnn2C)c2nc(N3CCN(C)CC3)n3cnnc3c2c1 (stereo not drawn) [Example 16, 6-Chloro-2-(1-methyl-1H-pyrazol-5-yl)-N-(1-(9-methyl-5-(4-methylpiperazin-1-yl)-[1,2,4]triazolo[4,3-c]quinazolin-7-yl)ethyl)pyridin-3-amine]	< 1	–
Cc1cc(C(C)Nc2ccc(Cl)nc2-c2ccncc2)c2nc(N3CCC(C)(C)CC3)n3cnnc3c2c1 (stereo not drawn) [Example 13, 6-Chloro-N-(1-(5-(4,4-dimethylpiperidin-1-yl)-9-methyl-[1,2,4]triazolo[4,3-c]quinazolin-7-yl)ethyl)-[2,4′-bipyridin]-3-amine]	< 1	–
CNC(=O)c1ccc(-c2nc(Cl)ccc2NC(C)c2cc(C)cc3c2nc(N2CCC(C)(C)CC2)n2cnnc32)cn1 (stereo not drawn) [Example 14, 6-Chloro-3-((1-(5-(4,4-dimethylpiperidin-1-yl)-9-methyl-[1,2,4]triazolo[4,3-c]quinazolin-7-yl)ethyl)amino)-N-methyl-[2,3′-bipyridine]-6′-carboxamide]	< 1	–
CCc1ncn2c3c(C(C)Nc4ccc(C)nc4C(=O)O)cc(C)cc3c3nncn3c12 (stereo not drawn) [Example 12, 3-((1-(5-Ethyl-11-methylimidazo[1,5-a][1,2,4]triazolo[4,3-c]quinazolin-9-yl)ethyl)amino)-6-methylpicolinic acid]	1 to 5	–

Second part, the molecule after the results:

IC50 [1] [µM]	IC50 [2] [µM]	SMILES
< 1	–	Cc1cc(C(C)Nc2ccccc2C(=O)O)c2nc(-c3cccc(C#N)c3)n3cnnc3c2c1 (stereo not drawn) [Example 9, 2-((1-(5-(3-Cyanophenyl)-9-methyl-[1,2,4]triazolo[4,3-c]quinazolin-7-yl)ethyl)amino)benzoic acid]
< 1	≥ 10	Cc1cc(C(C)Nc2ccccc2C(=O)O)c2nc(N3CC(C)(C)C3)n3cnnc3c2c1 (stereo not drawn) [Example 7, 2-((1-(5-(3,3-Dimethylazetidin-1-yl)-9-methyl-[1,2,4]triazolo[4,3-c]quinazolin-7-yl)ethyl)amino)benzoic acid]
< 1	–	Cc1cc(C(C)Nc2ccccc2C(=O)O)c2nc(-c3cc(F)cc(F)c3)n3cnnc3c2c1 (stereo not drawn) [Example 11, 2-((1-(5-(3,5-Difluorophenyl)-9-methyl-[1,2,4]triazolo[4,3-c]quinazolin-7-yl)ethyl)amino)benzoic acid]
< 1	≥ 10	Cc1cc(C(C)Nc2ccccc2C(=O)O)c2nc(N3CCC(C)(C)CC3)n3ncnc3c2c1 (stereo not drawn) [Example 3, 2-((1-(5-(4,4-Dimethylpiperidin-1-yl)-9-methyl-[1,2,4]triazolo[1,5-c]quinazolin-7-yl)ethyl)amino)benzoic acid]
< 1	≥ 10	Cc1cc(C(C)Nc2ccccc2C(=O)O)c2nc(N3CCC(C)(C)CC3)n3ccnc3c2c1 (stereo not drawn) [Example 1, 2-((1-(5-(4,4-Dimethylpiperidin-1-yl)-9-methylimidazo[1,2-c]quinazolin-7-yl)ethyl)amino)benzoic acid]
< 1	≥ 10	Cc1cc(C(C)Nc2ccccc2C(=O)O)c2nc(N3CCC(C)(C)C3)n3cnnc3c2c1 (stereo not drawn) [Example 6, 2-((1-(5-(3,3-Dimethylpyrrolidin-1-yl)-9-methyl-[1,2,4]triazolo[4,3-c]quinazolin-7-yl)ethyl)amino)benzoic acid]
< 1	–	Cc1cc(C(C)Nc2ccc(Cl)nc2C(=O)O)c2nc(-c3cccc(C#N)c3)n3cnnc3c2c1 (stereo not drawn) [Example 10, 6-Chloro-3-((1-(5-(3-cyanophenyl)-9-methyl-[1,2,4]triazolo[4,3-c]quinazolin-7-yl)ethyl)amino)picolinic acid]

From patent US20250346603A1, “TRICYCLIC COMPOUNDS AS PI3KALPHA INHIBITORS” (Pikavation Therapeutics, Inc., priority 2022, published 2025)
